Experimental data published in patent US11912682B2, “Isoindolinone compounds” (Monte Rosa Therapeutics, Inc., priority 2021, dated 2024).
Read-outs that look alike come from different tables or passages of the source.

What was measured:
[1] = molecular target: Full length wild-type cereblon CRBN (Homo sapiens (Human), UniProt Q96SW2); experiment: fluorescence polarization (FP) assay, cereblon binding
Text: Compound activity was monitored in a fluorescence polarization (FP) homogeneous assay using 1-[5-({2-[2-(2-{[2-(2,6-dioxopiperidin-3-yl)-1,3-dioxo-2,3-dihydro-1H-isoindol-4-yl]oxy}acetamido)ethoxy]ethyl}carbamoyl)pentyl]-3,3-dimethyl-2-[(1E,3E)-5-[(2E)-1,3,3-trimethyl-5-sulfo-2,3-dihydro-1H-indol-2-ylidene]penta-1,3-dien-1-yl]-3H-indol-1-ium-5-sulfonate as a fluorescent probe. Unless otherwise stated, all reagents were purchased from Sigma Aldrich. […] Full length wild-type cereblon CRBN (80.0 nM, 10 μL) was incubated in assay buffer containing 20 mM HEPES (pH 8.0), […], 0.5 mM TCEP and 0.05% Tween 20 in the presence or absence of compound (300 nL). Inhibitors were stored as 10 mM DMSO stocks in an inert environment (low humidity, dark, low oxygen, room temperature) using the Storage Pod System. […] Following incubation at room temperature for 30 min, the assay was initiated by dispensing the probe to a final concentration of 5 nM (2.5 nL of a 20 μM stock) using the Echo ESXX. […] The FP signal was subsequently normalized to the no-compound control (i.e., DMSO). Analysis and IC50 values were derived using Dotmatics (Dotmatics UK) software.

GSPT1 = GSPT1 (Homo sapiens (Human), UniProt P15170+Q96SW2); experiment: immunofluorescence assay for GSPT1 degradation in CAL-51 cells (Example 4); assay type: cell-based
Method: The representative compounds were tested in an immunofluorescence assay for their activity to bind to degrade GSPT1. CAL-51 cells were purchased from DSMZ (cat. Number ACC302), sub-cultured in 90% Dulbecco's MEM (4.5 g/L glucose, Gibco 11965) +10% heat inactivated FBS (BioConcept, 2-01F136I) and incubated at 37° C., 5% CO2. For the assay, imaging microtiterplate Cell Carrier 96 Ultra (Perkin Elmer 6055302) were pre-coated with Fibronectin (Sigma F085, 30 μl at 0.2 μg/ml) in PBS (100 μl, Gibco 14190) for 45 min at room temperature, rinsed with PBS and CAL-51 cells (30 K cells/well) were plated and let to adhere overnight. Cells were treated with compounds typically using a serial dilution ranging from 30 μM to 0.1 nM for 6 hours. Compounds were stored at 10 mM DMSO stocks. Vehicle (DMSO), positive (CC-885, 10 μM) and rescue controls (positive control plus 0.2 μM bortezomib) were also included atthis stage. Cells were subsequently rinsed with PBS and fixed in 10% Formalin solution (50 μl, Sigma HT5011)) for 20 mins at room temperature. Following three consecutive PBS washes (100 μl), cells were permeabilized in 0.1% Triton X-100 in PBS (Sigma 93443, 50 μl) for 15 mins at room temperature. Following three further PBS washes, 50 μl blocking buffer (1% BSA, Sigma A4503, in PBS) was added for 45 min for signal-to-noise reduction.
Primary antibody (human GSPT1, Sigma HPA052488) was diluted in blocking buffer (dil.1/300, 35 μl/well) and incubated with the cells overnight at 4° C. After three PBS washes, Alexa-fluor 488 coupled secondary antibodies (Invitrogen, A32731, dil.1/1000), Alexa-fluor 647-Phalloidin (Invitrogen, A22287, dil.1/200) and DAPI (Thermo, #62248, dil.1/1000) were diluted in blocking buffer and incubated with the samples for 2 hours at room temperature. After three final PBS washes, samples were conserved in 100 μl PBS in the dark, until measurement. Image acquisition was performed on the Operetta High-Content Imager (Perkin-Elmer). Fluorescence intensity of Alexa-Fluor 488 (GSPT1), Alexa-Fluor 647 (Actin) and DAPI (Nucleus) were measured. For the determination of GSPT1 DC50 values, a custom algorithm implemented in the PerkinElmer image analysis software Harmony-Acapella® was developed. After user-defined setting of adjustment parameters, the analysis was run identically without human intervention for all image fields. DAPI staining of the nuclei was used to determine the location of cells using standard nuclei detection modules. Segmentation artifacts were removed by threshold-based filters for area, roundness and intensity. The outline of the cells was determined analogously from the sum of the normalized, smoothed DAPI and Actin channel, starting from each nucleus. The Alexa-Fluor 488 (GSPT1) signal intensity in each cell was finally measured, in order to obtain a Mean intensity per cell. GSPT1 degradation (DC50) was calculated after normalization to controls and data import in CDD vault Database, using non-linear regression.

[2] = 6 hours, read-out: Activity for GSPT1 degradation, Code (DC50)
[3] = GSPT1 degradation, read-out: DC50 value

GSPT1, sequence (P15170 whole entry): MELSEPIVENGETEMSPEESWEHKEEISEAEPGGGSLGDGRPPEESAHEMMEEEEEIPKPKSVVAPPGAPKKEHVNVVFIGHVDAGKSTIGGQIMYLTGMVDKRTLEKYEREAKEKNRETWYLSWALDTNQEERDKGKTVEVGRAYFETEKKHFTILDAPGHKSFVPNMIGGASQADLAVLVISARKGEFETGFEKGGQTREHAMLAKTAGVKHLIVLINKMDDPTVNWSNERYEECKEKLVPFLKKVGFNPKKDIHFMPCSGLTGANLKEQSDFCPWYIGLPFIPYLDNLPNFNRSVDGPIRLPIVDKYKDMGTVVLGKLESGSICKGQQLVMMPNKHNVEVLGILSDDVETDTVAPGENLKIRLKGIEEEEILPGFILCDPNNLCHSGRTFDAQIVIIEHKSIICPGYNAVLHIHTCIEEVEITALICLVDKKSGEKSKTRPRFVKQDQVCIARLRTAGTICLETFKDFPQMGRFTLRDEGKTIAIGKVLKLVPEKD
GSPT1, sequence (Q96SW2 whole entry): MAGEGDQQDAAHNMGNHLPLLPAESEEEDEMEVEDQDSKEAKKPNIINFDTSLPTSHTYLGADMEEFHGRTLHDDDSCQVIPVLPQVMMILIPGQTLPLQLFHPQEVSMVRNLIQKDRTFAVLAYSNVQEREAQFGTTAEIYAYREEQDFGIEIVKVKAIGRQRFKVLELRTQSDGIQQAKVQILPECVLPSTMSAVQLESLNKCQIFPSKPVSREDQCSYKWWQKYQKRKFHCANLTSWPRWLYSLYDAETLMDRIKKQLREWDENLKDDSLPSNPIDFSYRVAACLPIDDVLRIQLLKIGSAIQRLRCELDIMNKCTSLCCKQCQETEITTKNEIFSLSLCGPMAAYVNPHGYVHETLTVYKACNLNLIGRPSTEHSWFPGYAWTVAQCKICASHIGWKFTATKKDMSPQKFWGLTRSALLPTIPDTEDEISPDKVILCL
GSPT1, sequence (Q16531 2-1140 partner): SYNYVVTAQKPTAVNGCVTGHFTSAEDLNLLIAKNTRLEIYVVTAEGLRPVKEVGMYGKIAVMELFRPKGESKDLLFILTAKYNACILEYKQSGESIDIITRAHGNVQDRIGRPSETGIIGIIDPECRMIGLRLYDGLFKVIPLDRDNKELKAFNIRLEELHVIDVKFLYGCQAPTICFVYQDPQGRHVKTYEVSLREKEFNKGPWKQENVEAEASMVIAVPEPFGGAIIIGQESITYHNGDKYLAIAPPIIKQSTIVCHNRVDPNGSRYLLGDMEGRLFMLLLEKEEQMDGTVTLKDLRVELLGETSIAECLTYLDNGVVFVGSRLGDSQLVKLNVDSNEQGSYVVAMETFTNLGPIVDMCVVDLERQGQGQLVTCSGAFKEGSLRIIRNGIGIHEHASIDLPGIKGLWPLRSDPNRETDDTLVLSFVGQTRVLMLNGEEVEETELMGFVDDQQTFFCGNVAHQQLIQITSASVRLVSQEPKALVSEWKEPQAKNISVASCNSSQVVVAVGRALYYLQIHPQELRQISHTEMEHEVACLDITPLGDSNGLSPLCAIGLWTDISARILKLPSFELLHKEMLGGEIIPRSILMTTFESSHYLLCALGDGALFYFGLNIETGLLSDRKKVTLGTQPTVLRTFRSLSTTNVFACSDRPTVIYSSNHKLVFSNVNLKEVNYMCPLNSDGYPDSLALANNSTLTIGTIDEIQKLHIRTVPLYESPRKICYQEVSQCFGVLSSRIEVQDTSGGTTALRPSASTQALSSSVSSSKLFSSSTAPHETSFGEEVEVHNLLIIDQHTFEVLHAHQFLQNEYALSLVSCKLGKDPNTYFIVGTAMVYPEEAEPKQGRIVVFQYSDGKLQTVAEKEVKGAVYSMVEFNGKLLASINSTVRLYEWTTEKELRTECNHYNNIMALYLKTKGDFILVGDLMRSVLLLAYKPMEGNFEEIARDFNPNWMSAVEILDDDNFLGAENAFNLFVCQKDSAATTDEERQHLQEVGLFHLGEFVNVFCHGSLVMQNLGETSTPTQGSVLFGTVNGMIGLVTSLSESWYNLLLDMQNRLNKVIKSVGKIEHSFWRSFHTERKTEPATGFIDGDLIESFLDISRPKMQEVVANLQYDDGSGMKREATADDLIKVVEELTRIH
Full length wild-type cereblon CRBN, sequence (Q96SW2 whole entry): as the sequence (Q96SW2 whole entry) above

IC50 ([1]; read-out: IC50 value) [µM]	DC50 (GSPT1; [2]) [µM]	DC50 (GSPT1; [3]) [µM]	IC50 ([1]; read-out: rFP IC50) [µM]	SMILES
< 1.1	0.03 to 0.3	–	–	Cc1cc(NC(=O)OCc2ccc3c(c2)C(=O)N(C2CCC(=O)NC2=O)C3)cc(C)n1 (centres unmarked) [Compound 7]
< 1.1	< 0.03	≤ 0.03	–	Cc1cc(C)cc(NC(=O)OCc2ccc3c(c2)C(=O)N(C2CCC(=O)NC2=O)C3)c1 (centres unmarked) [Compound 8]
< 1.1	< 0.03	≤ 0.03	–	Cc1c(Cl)cc(NC(=O)OCc2ccc3c(c2)C(=O)N(C2CCC(=O)NC2=O)C3)cc1CN1CC2CC1CO2 (centres unmarked) [Compound 13]
–	> 0.3	–	< 0.5	O=C1CCC(N2Cc3ccc(COC(=O)Nc4cc(Cl)cc(OCC5CCNC5)c4)cc3C2=O)C(=O)N1 (centres unmarked) [Compound 16]
–	> 0.3	–	> 1.7	Cc1ccc(NC(=O)OC(C)c2ccc3c(c2)C(=O)N(C2CCC(=O)NC2=O)C3)cc1Cl (centres unmarked) [Compound 17]
< 1.1	0.03 to 0.3	–	–	O=C1CCC(N2Cc3ccc(COC(=O)Nc4ccc5c(c4)OCC5)cc3C2=O)C(=O)N1 (centres unmarked) [Compound 18]
–	0.03 to 0.3	–	> 1.7	O=C1CCC(N2Cc3ccc(COC(=O)Nc4cc(Cl)cc(OC(F)F)c4)cc3C2=O)C(=O)N1 (centres unmarked) [Compound 19]
–	< 0.03	≤ 0.03	> 1.7	Cc1c(Cl)cc(NC(=O)OCc2ccc3c(c2)C(=O)N(C2CCC(=O)NC2=O)C3)cc1CN1CC2CCC(C1)O2 (centres unmarked) [Compound 21]
–	> 0.3	–	> 1.7	O=C1CCC(N2Cc3ccc(COC(=O)NCC4CC4)cc3C2=O)C(=O)N1 (centres unmarked) [Compound 22]
–	> 0.3	–	< 0.5	O=C1CCC(N2Cc3ccc(COC(=O)N4CCCCC4)cc3C2=O)C(=O)N1 (centres unmarked) [Compound 23]
< 1.1	< 0.03	≤ 0.03	–	Cc1ccc(NC(=O)OCc2ccc3c(c2)C(=O)N(C2CCC(=O)NC2=O)C3)cc1OC(F)F (centres unmarked) [Compound 24]
< 1.1	< 0.03	≤ 0.03	–	Cc1c(CN2CCOCC2)cc(NC(=O)OCc2ccc3c(c2)C(=O)N(C2CCC(=O)NC2=O)C3)cc1OC(F)F (centres unmarked) [Compound 25]
< 1.1	> 0.3	–	–	O=C1CCC(N2Cc3ccc(COC(=O)N4CCCC4)cc3C2=O)C(=O)N1 (centres unmarked) [Compound 26]
–	> 0.3	–	> 1.7	CC(C)CCNC(=O)OCc1ccc2c(c1)C(=O)N(C1CCC(=O)NC1=O)C2 (centres unmarked) [Compound 27]
< 1.1	> 0.3	–	–	O=C1CCC(N2Cc3ccc(COC(=O)NC4CCCC4)cc3C2=O)C(=O)N1 (centres unmarked) [Compound 29]
–	> 0.3	–	< 0.5	O=C1CCC(N2Cc3ccc(COC(=O)N4CCC(Oc5ccccc5)C4)cc3C2=O)C(=O)N1 (centres unmarked) [Compound 30]
–	0.03 to 0.3	–	> 1.7	O=C1CCC(N2Cc3ccc(COC(=O)Nc4cc(F)cc(OC(F)F)c4)cc3C2=O)C(=O)N1 (centres unmarked) [Compound 31]
–	0.03 to 0.3	–	> 1.7	O=C1CCC(N2Cc3ccc(COC(=O)Nc4ccc(F)c(OC(F)F)c4)cc3C2=O)C(=O)N1 (centres unmarked) [Compound 32]
–	< 0.03	≤ 0.03	> 1.7	Cc1c(CN2CCOCC2)cc(NC(=O)OCc2ccc3c(c2)C(=O)N(C2CCC(=O)NC2=O)C3)cc1OC(F)(F)F (centres unmarked) [Compound 34]
–	> 0.3	–	< 0.5	O=C1CCC(N2Cc3ccc(COC(=O)NC4CCN(c5ccccn5)CC4)cc3C2=O)C(=O)N1 (centres unmarked) [Compound 35]
–	> 0.3	–	< 0.5	O=C1CCC(N2Cc3ccc(COC(=O)N4CCN(c5ccccc5)CC4)cc3C2=O)C(=O)N1 (centres unmarked) [Compound 36]

IC50 ([1]; read-out: IC50 value) [µM]	DC50 (GSPT1; [2]) [µM]	DC50 (GSPT1; [3]) [µM]	IC50 ([1]; read-out: rFP IC50) [µM]	SMILES
–	0.03 to 0.3	–	> 1.7	COc1cc(NC(=O)OCc2ccc3c(c2)C(=O)N(C2CCC(=O)NC2=O)C3)ccc1C (centres unmarked) [Compound 37]
< 1.1	> 0.3	–	–	COc1cc(Cl)ccc1NC(=O)OCc1ccc2c(c1)C(=O)N(C1CCC(=O)NC1=O)C2 (centres unmarked) [Compound 38]
< 1.1	< 0.03	≤ 0.03	–	O=C1CCC(N2Cc3ccc(COC(=O)Nc4ccc(C5CC5)cc4)cc3C2=O)C(=O)N1 (centres unmarked) [Compound 39]
–	0.03 to 0.3	–	< 0.5	CN1CCC(COc2cc(Cl)cc(NC(=O)OCc3ccc4c(c3)C(=O)N(C3CCC(=O)NC3=O)C4)c2)C1 (centres unmarked) [Compound 40]
< 1.1	< 0.03	≤ 0.03	–	Cc1c(F)cc(NC(=O)OCc2ccc3c(c2)C(=O)N(C2CCC(=O)NC2=O)C3)cc1CN1CCOCC1 (centres unmarked) [Compound 41]
< 1.1	0.03 to 0.3	–	–	Cc1c(Cl)cc(NC(=O)OCc2ccc3c(c2)C(=O)N(C2CCC(=O)NC2=O)C3)cc1OC1CCNC1 (centres unmarked) [Compound 44]
–	0.03 to 0.3	–	> 1.7	CCc1cc(NC(=O)OCc2ccc3c(c2)C(=O)N(C2CCC(=O)NC2=O)C3)cc(Cl)c1C (centres unmarked) [Compound 45]
–	< 0.03	≤ 0.03	< 0.5	CN1CCC(Oc2cc(Cl)cc(NC(=O)OCc3ccc4c(c3)C(=O)N(C3CCC(=O)NC3=O)C4)c2)C1 (centres unmarked) [Compound 46]
–	< 0.03	≤ 0.03	> 1.7	O=C1CCC(N2Cc3ccc(COC(=O)Nc4ccc(-c5ccccn5)cc4)cc3C2=O)C(=O)N1 (centres unmarked) [Compound 50]
< 1.1	0.03 to 0.3	–	–	COc1cc(NC(=O)OCc2ccc3c(c2)C(=O)N(C2CCC(=O)NC2=O)C3)cnc1C (centres unmarked) [Compound 51]
< 1.1	> 0.3	–	–	Cc1c(Cl)cc(NC(=O)OCc2ccc3c(c2)C(=O)N(C2CCC(=O)NC2=O)C3)cc1OCC1CCNC1 (centres unmarked) [Compound 52]
< 1.1	0.03 to 0.3	–	–	O=C1CCC(N2Cc3ccc(COC(=O)Nc4cnc5c(c4)CCC5)cc3C2=O)C(=O)N1 (centres unmarked) [Compound 53]
–	> 0.3	–	< 0.5	O=C1CCC(N2Cc3ccc(COC(=O)Nc4cnc5c(c4)COCC5)cc3C2=O)C(=O)N1 (centres unmarked) [Compound 54]
< 1.1	< 0.03	≤ 0.03	–	CCc1cc(NC(=O)OCc2ccc3c(c2)C(=O)N(C2CCC(=O)NC2=O)C3)cnc1C (centres unmarked) [Compound 55]
–	< 0.03	≤ 0.03	> 1.7	O=C1CCC(N2Cc3ccc(COC(=O)Nc4cc(F)cc(OC(F)(F)F)c4)cc3C2=O)C(=O)N1 (centres unmarked) [Compound 57]
< 1.1	< 0.03	≤ 0.03	–	CC1(c2ccc(NC(=O)OCc3ccc4c(c3)C(=O)N(C3CCC(=O)NC3=O)C4)cc2)CC1 (centres unmarked) [Compound 58]
–	0.03 to 0.3	–	< 0.5	O=C1CCC(N2Cc3ccc(COC(=O)Nc4cc(OC(F)(F)F)ccn4)cc3C2=O)C(=O)N1 (centres unmarked) [Compound 59]
–	0.03 to 0.3	–	< 0.5	O=C1CCC(N2Cc3ccc(COC(=O)Nc4ccc(N5CCCC5)nc4)cc3C2=O)C(=O)N1 (centres unmarked) [Compound 60]
–	< 0.03	≤ 0.03	> 1.7	O=C1CCC(N2Cc3ccc(COC(=O)Nc4ccc(F)c(OC(F)(F)F)c4)cc3C2=O)C(=O)N1 (centres unmarked) [Compound 61]
< 1.1	0.03 to 0.3	–	–	CC1(c2ccc(NC(=O)OCc3ccc4c(c3)C(=O)N(C3CCC(=O)NC3=O)C4)cc2)COC1 (centres unmarked) [Compound 62]
–	> 0.3	–	< 0.5	CCc1cc(NC(=O)OCc2ccc3c(c2)C(=O)N(C2CCC(=O)NC2=O)C3)ccn1 (centres unmarked) [Compound 63]
